In the NIST ThermoML archive (doi:10.1016/j.fluid.2018.08.017):

Experiment: wn = mass fraction of the nth substance listed
Settings: 101 kPa, Liquid; for speed of sound: Single path-length method; for mass density: Vibrating tube method

CN1CCCC1=O [N-methylpyrrolidone] + CCCCn1cc[n+](C)c1.F[B-](F)(F)F
Settings	mass density [kg/m3]	speed of sound [m/s]	viscosity [mPa·s]
293.15 K, w2 = 0	1034.1	1565.7	1.786
293.15 K, w2 = 0.0986	1052.7	1579.2	2.568
293.15 K, w2 = 0.2498	1077.9	1582	3.938
293.15 K, w2 = 0.4971	1119.5	1585.5	9.374
293.15 K, w2 = 0.7413	1160.6	1580.1	27.49
298.15 K, w2 = 0	1029.7	1546.1	1.693
298.15 K, w2 = 0.0986	1048.4	1560.5	2.33
298.15 K, w2 = 0.2498	1073.7	1564.5	3.528
298.15 K, w2 = 0.4971	1115.5	1570.1	8.144
298.15 K, w2 = 0.7413	1156.8	1566.6	22.73
303.15 K, w2 = 0	1025.2	1526.7	1.564
303.15 K, w2 = 0.0986	1044	1541.8	2.129
303.15 K, w2 = 0.2498	1069.5	1546.8	3.18
303.15 K, w2 = 0.4971	1111.5	1554.5	7.116
303.15 K, w2 = 0.7413	1153	1552.8	19.07
308.15 K, w2 = 0	1020.8	1507.5	1.448
308.15 K, w2 = 0.0986	1039.7	1523.2	1.953
308.15 K, w2 = 0.2498	1065.4	1529.4	2.884
308.15 K, w2 = 0.4971	1107.5	1539	6.257
308.15 K, w2 = 0.7413	1149.2	1539.2	16.26
313.15 K, w2 = 0	1016.3	1488.3	1.346
313.15 K, w2 = 0.0986	1035.4	1504.8	1.798
313.15 K, w2 = 0.2498	1061.2	1512	2.627
313.15 K, w2 = 0.4971	1103.5	1523.7	5.544
313.15 K, w2 = 0.7413	1145.4	1525.6	13.88
318.15 K, w2 = 0	1011.9	1469.2	1.258
318.15 K, w2 = 0.0986	1031	1486.6	1.662
318.15 K, w2 = 0.2498	1057	1494.8	2.405
318.15 K, w2 = 0.4971	1099.5	1508.4	4.948
318.15 K, w2 = 0.7413	1141.7	1512.2	12.04
323.15 K, w2 = 0	1007.4	1450.4	1.176
323.15 K, w2 = 0.0986	1026.6	1468.4	1.542
323.15 K, w2 = 0.2498	1052.8	1478	2.214
323.15 K, w2 = 0.4971	1095.5	1493.2	4.444
323.15 K, w2 = 0.7413	1137.9	1498.9	10.54
328.15 K, w2 = 0	1002.9	1431.4	1.103
328.15 K, w2 = 0.0986	1022.3	1450.5	1.435
328.15 K, w2 = 0.2498	1048.6	1461.1	2.043
328.15 K, w2 = 0.4971	1091.6	1478.1	4.015
328.15 K, w2 = 0.7413	1134.2	1485.6	9.281
333.15 K, w2 = 0	998.4	1412.8	1.037
333.15 K, w2 = 0.0986	1018	1432.6	1.341
333.15 K, w2 = 0.2498	1044.4	1444.4	1.892
333.15 K, w2 = 0.4971	1087.6	1463.2	3.636
333.15 K, w2 = 0.7413	1130.5	1472.4	8.224
338.15 K, w2 = 0	993.9	1394.4	0.9769
338.15 K, w2 = 0.0986	1013.6	1414.6	1.258
338.15 K, w2 = 0.2498	1040.2	1427.8	1.76
338.15 K, w2 = 0.4971	1083.6	1448.1	3.34
338.15 K, w2 = 0.7413	1126.7	1459.3	7.318
343.15 K, w2 = 0	989.4	1376	0.923
343.15 K, w2 = 0.0986	1009.2	1396.4	1.182
343.15 K, w2 = 0.2498	1036	1411.3	1.641
343.15 K, w2 = 0.4971	1079.6	1432.9	3.064
343.15 K, w2 = 0.7413	1123	1445.8	6.555
